In PMC5733001, “Biochemical and Thermodynamical Characterization of Glucose Oxidase, Invertase, and Alkaline Phosphatase Secreted by Antarctic Yeasts” (Frontiers in Molecular Biosciences, 2017):

Experiments:
[1] = system: T1, GOD (glucose oxidase) from G. gastrica; assay: Michaelis-Menten initial rates; peroxidase / o-dianisidine assay, […] nm; format: biochemical, Goffeauzyma gastrica; settings: 64 °C, 2 M CaCl2; glucose 0.006-11 mM; O2 as co-substrate
T1 construct: native extracellular enzyme purified from yeast culture supernatant (ammonium sulfate, Superdex 75); Mr 91,000 by SDS-PAGE

[2] = system: T2, ALP (alkaline phosphatase) from Dioszegia sp.; assay: Michaelis-Menten initial rates; alkaline phosphatase assay kit, […] nm; format: biochemical; settings: 47 °C, pH 9.0; pNPP 0.001-2 mM
T2 construct: native extracellular enzyme purified from yeast culture supernatant (ammonium sulfate, anion exchange); Mr 39,000 by SDS-PAGE

purified protein = substrate: OC[C@H]1O[C@@](CO)(O[C@H]2O[C@H](CO)[C@@H](O)[C@H](O)[C@H]2O)[C@@H](O)[C@@H]1O; assay: purified protein; format: biochemical, Hansenula anomala; settings: 60 °C, pH 5.0, sucrose 1-100 mM

Work on `OC[C@H]1OC(O)[C@H](O)[C@@H](O)[C@@H]1O` (stereo partly shown) [glucose] yielded a Km [1] of 1600 µM.

`O=[N+]([O-])c1ccc(OP(=O)(O)O)cc1` [p-nitrophenylphosphate] was tested, and the Km [2] was 590 µM.

B1: Inv (invertase) from W. anomalus (Hansenula anomala) (protein)
chain: STEYLRPQIHLTPDQGWMNDPNGMFYDRKDKLWHVYFQHNPDKKSIWATPVTWGHSTSKDLLTWDYHGNALEPENDDEGIFSGSVVVDRNNTSGFFNDSTDPEQRIVAIYTNNAQLQTQEIAYSLDKGYSFIKYDQNPVINVNSSQQRDPKVLWHDESNQWIMVVAKTQEFKVQIYGSPDLKKWDLKSNFTSNGYLGFQYECPGLFKLPIENPLNDTVTSKWVLLLAINPGSPLGGSINEYFIGDFDGTTFHPDDGATRFMDIGKDFYAFQSFDNTEPEDGALGLAWASNWQYANTVPTENWRSSMSLVRNYTLKYVDVNPENYGLTLIQKPVYDTKETRLNETLKTLETINEYEVNDLKLDKSSFVATDFNTERNATGVFEFDLKFTQTDLKMGYSNMTTQFGLYIHSQTVKGSQETLQLVFDTLSTTWYIDRTTQHSFQRNSPVFTERISTYVEKIDTTDQGNVYTLYGVVDRNILELYFNDGSIAMTNTFFFREGKIPTSFEVVCDSEKSFITIDELSVRELARK
notes: native extracellular enzyme purified from yeast culture supernatant (ammonium sulfate, Superdex 200); Mr 101,000 by SDS-PAGE
B1 was tested, and the Km (purified protein) was 78600 µM and the Vmax (purified protein) was 99500 µM/min.
